Patent US8785431B2, “Prodrugs of (1S,9S)-9-[[(1S)-1-carboxy-3-phenylpropyl]amino]octahydro-10-oxo-6H-pyridazino[1,2-a][1,2]diazepine-1-carboxylic acid and their use in transdermal therapeutic systems” (Hexal AG, priority 2011, dated 2014)

How the values were obtained:
[1] = Rate of hydrolysis in porcine skin homogenate at 37° C. (HPLC or HPLC-MS); format: in vitro ADME; settings: for half-life: pig; for reaction kinetics in porcine skin homogenate: in words
Protocol: (§1) To assess whether the synthesised cilazapril prodrugs undergo enzymatic cleavage, metabolic studies were carried out in three well established incubation media for the investigation of transdermal administration.
Due to its similarities with human skin, in terms of enzyme activity and distribution, a porcine skin homogenate (25% w/w in PBS-buffer, 0.65 U/ml, 1.3 mg/ml (Bradford)) was used for the metabolic studies.
(§2) Incubation mixtures were prepared by adding a respective prodrug stock solution to porcine skin homogenate (PSH), human plasma and buffered porcine liver esterase (PLE), respectively.
(§3) All samples were incubated in a water bath at 37° C. After 72 h samples of the incubation mixtures (200 μl) were collected. To all samples 400 μl of ice-cold acetonitrile were added. After vortex mixing the samples were allowed to stand in a refrigerator for approx. 30 min. The samples were then centrifuged at 13000 rpm (13000 g) for 5 min. The supernatants were collected and stored at −78° C. until HPLC analysis. To 200 μl of each supernatant 400 μl of aqueous 0.05% trifluoroacetic acid were added prior to injection.
(§4) The kinetics of the hydrolysis of the cilazapril prodrugs in the different incubation media was analysed by HPLC or HPLC-MS.
(§5) The rate of hydrolysis of cilazapril, of some cilazapril prodrugs and cilazapril ethyl ester in porcine skin homogenate, human plasma and buffered porcine liver esterase at 37° C. are presented in Table 4.

in vitro = in vitro ADME
Protocol: as §1
Human plasma (CPD plasma, 3.82 U/ml), which contains i.a. cholinesterase and acetylcholinesterase, was used as the second incubation media.
as §2, §3, §4, §5

porcine liver esterase = test: Rate of hydrolysis in buffered porcine liver esterase at 37° C. (HPLC or HPLC-MS); format: in vitro ADME; settings: for half-life: pig
Protocol: as §1
(§6) Buffered porcine liver esterase (suspension in 3.2 M (NH4)2SO4 solution, pH 8, 12 mg prot./ml (Biuret), 260 U/mg prot.) was chosen as the third incubation media, because porcine liver esterase mimics the carboxylesterase present in the human skin.
as §2, §3, §4, §5

[2] = Metabolic studies in enzyme-containing incubation mixtures (porcine skin homogenate, human plasma, buffered porcine liver esterase), results in words; format: in vitro ADME; settings: 37° C.; for enzymatic cleavage / hydrolysis to cilazaprilate: incubation mixtures; for degradation / reaction kinetics of enzymatic hydrolysis: enzyme-containing incubation mixtures
Protocol: as §1, §6, §2
as §3, with “After 72 h samples of the incubation mixtures (200 μl) were collected.” left out
as §4

[3] = Stability of 10% cilazapril in an acrylic adhesive (Durotak 87-4098, Henkel); format: physicochemical; settings: 10% in acrylic adhesive Durotak 87-4098
Source text: Instability in a semisolid dosage form is also a problem with cilazapril. Although cilazapril has a more rigid structure than other ACE-inhibitors and has no distinct tendency to intramolecular cyclisation, it presents stability problems in adhesive layers of transdermal therapeutic systems as shown in Table 1.

[4] = Stability in transdermal therapeutic system (10% in BioPSA Hex 7-4302), extraction and HPLC; format: physicochemical; settings: TTS
Protocol: The stability of the prodrugs in the transdermal therapeutic system was determined after different storage times and temperatures by extraction of the transdermal therapeutic system with an organic solvent and subsequent analysis by HPLC.
The stability of the cilazapril prodrugs (1) and (2) in therapeutic transdermal systems was controlled at 25° C./60% relative humidity and compared with the cilazapril in a TTS having the same adhesive layer.

[5] = Crystallization in the TTS; format: physicochemical; settings: after 14 months
Source text: Moreover, the TTSs with the prodrugs (1), (2) and (6) were examined with regard to crystallization.

[6] = In vitro skin permeation from TTS through human skin (two-compartment diffusion cell); format: in vitro ADME; settings: TTS on human skin, 32±1° C., 96 hours, FIG. 1
Protocol: Furthermore the permeability of the prodrugs through the skin was measured by in vitro skin permeation. The in vitro skin permeation of the prodrugs (1), (2) and (6) and of cilazapril through human skin was evaluated using the TTS as prepared in any one of examples 8, 9, and 11.
The flux was determined by using a two-compartment diffusion cell with a section of human skin mounted between the cell halves. A TTS was adhered to one side of the skin and a drug-receiving medium was placed on the receptor-side of the cell. The apparatus was placed in a water bath maintained at 32±1° C. Samples of the receptor medium were collected over a period of 96 hours for HPLC analysis of drug concentration.

[7] = porcine skin homogenate, 37° C.
[8] = 9 months, 25° C./60% relative humidity

SMILES | enzymatic cleavage / hydrolysis to cilazaprilate [2] | half-life [1, 7] | half-life (porcine liver esterase) | assay [%] ([4]; 0 months, uncontrolled) | assay [%] [4, 8] | reaction kinetics in porcine skin homogenate [1] | f50% (h), time by which 50% of total cilazaprilate has been formed (in vitro; human) | half-life (in vitro; human, plasma) | degradation / reaction kinetics of enzymatic hydrolysis [2] | crystallization in the TTS [5] | in vitro skin flux compared to the cilazapril TTS [6] | further results
CCOC(=O)[C@H](CCc1ccccc1)N[C@H]1CCCN2CCC[C@@H](C(=O)OCC)N2C1=O [cilazapril ethyl ester, reference compound] | no hydrolysis to cilazaprilate was detectable | – | – | – | – | – | – | – | – | – | – | t1/2 [1, 7]: 0.35 h; t1/2 (in vitro; human plasma, 37° C.): 11.9 h; t1/2 (porcine liver esterase): 0.69 h; enzymatic cleavage / hydrolysis to cilazaprilate ([2]; listed as ethyl ester of cilazapril): stable against enzymatic cleavage
CCOC(=O)[C@H](CCc1ccccc1)N[C@H]1CCCN2CCC[C@@H](C(=O)O)N2C1=O [cilazapril, (1S,9S)-9-[[(1S)-1-ethoxycarbonyl-3-phenylpropyl]amino]octahydro-10-oxo-6H-pyridazino[1,2-a][1,2]diazepine-1-carboxylic acid, reference compound] | – | 9.4 h | 3.3 h | 99.8% | 97.0% | – | – | – | – | – | – | assay [%] ([3]; 0 months, uncontrolled): 98.1%; assay [%] ([3]; 3 weeks, 25° C./60% relative humidity): 98.0%; assay [%] ([3]; 3 weeks, 40° C./75% relative humidity): 95.9%; assay [%] ([3]; 7 months, 25° C./60% relative humidity): 91.9%; assay [%] ([3]; 7 months, 40° C./75% relative humidity): 80.4%; half-life (in vitro; human plasma, 37° C., read-out: t1/2 (converted)): 88.8 h
CCOC(=O)OC(C)OC(=O)[C@@H]1CCCN2CCCC(N[C@@H](CCc3ccccc3)C(=O)OCC)C(=O)N12 (stereo partly drawn) [compound 1, (1S,9S)-1-(ethoxycarbonyloxy)ethyl 9-[[(1S)-1-ethoxycarbonyl-3-phenylpropyl]amino]-10-oxooctahydro-1H-pyridazino[1,2-a][1,2]diazepine-1-carboxylate] | formation of cilazaprilate as the final metabolite | 0.43 h | 0.67 h | 99.3% | 98.0% | fast reaction kinetics | 154 h | 0.58 h | fast degradation | none of the TTS showed crystallization | increase in in vitro skin flux | –
CCOC(=O)[C@H](CCc1ccccc1)NC1CCCN2CCC[C@@H](C(=O)OC(C)OC(=O)OC3CCCCC3)N2C1=O (stereo partly drawn) [compound 2, (1S,9S)-1-(cyclohexyloxycarbonyloxy)ethyl 9-[[(1S)-1-ethoxycarbonyl-3-phenylpropyl]amino]-10-oxooctahydro-1H-pyridazino[1,2-a][1,2]diazepine-1-carboxylate] | formation of cilazaprilate as the final metabolite | 1.4 h | 4.2 h | 100.0% | 98.3% | fast reaction kinetics | 228 h | 3.2 h | fast degradation | none of the TTS showed crystallization | increase in in vitro skin flux | –
CCOC(=O)[C@H](CCc1ccccc1)NC1CCCN2CCC[C@@H](C(=O)OC(C)OC(=O)OC(C)C)N2C1=O (stereo partly drawn) [compound 3, (1S,9S)-1-(isopropyloxycarbonyloxy)ethyl 9-[[(1S)-1-ethoxycarbonyl-3-phenylpropyl]amino]-10-oxooctahydro-1H-pyridazino[1,2-a][1,2]diazepine-1-carboxylate] | formation of cilazaprilate as the final metabolite | 1 h | 1.5 h | – | – | – | 108 h | 1.9 h | fast degradation | – | – | –
CCOC(=O)[C@H](CCc1ccccc1)NC1CCCN2CCC[C@@H](C(=O)OC(C)OC(C)=O)N2C1=O (stereo partly drawn) [compound 4, (1S,9S)-1-(acetoxy)ethyl 9-[[(1S)-1-ethoxycarbonyl-3-phenylpropyl]amino]-10-oxooctahydro-1H-pyridazino[1,2-a][1,2]diazepine-1-carboxylate] | formation of cilazaprilate as the final metabolite | 0.5 h | 0.63 h | – | – | – | 91.2 h | 0.68 h | fast degradation | – | – | –
CCOC(=O)[C@H](CCc1ccccc1)NC1CCCN2CCC[C@@H](C(=O)OC(C)OC(=O)C(C)(C)C)N2C1=O (stereo partly drawn) [compound 5, (1S,9S)-1-(2,2-dimethylpropanoyloxy)ethyl 9-[[(1S)-1-ethoxycarbonyl-3-phenylpropyl]amino]-10-oxooctahydro-1H-pyridazino[1,2-a][1,2]diazepine-1-carboxylate] | formation of cilazaprilate as the final metabolite | 1 h | 3.8 h | – | – | – | 33.6 h | 5.1 h | fast degradation | – | – | –
CCOC(=O)[C@H](CCc1ccccc1)N[C@H]1CCCN2CCC[C@@H](C(=O)OCCN3CCOCC3)N2C1=O [compound 6, (1S,9S)-2-morpholinoethyl 9-[[(1S)-1-ethoxycarbonyl-3-phenylpropyl]amino]-10-oxooctahydro-1H-pyridazino[1,2-a][1,2]diazepine-1-carboxylate] | – | 0.5 h | 0.95 h | 98.1% | 94.7% | fast reaction kinetics | 10.8 h | 1.3 h | fast reaction kinetics | none of the TTS showed crystallization | increase in in vitro skin flux | –
CCOC(=O)[C@H](CCc1ccccc1)NC1CCCN2CCC[C@@H](C(=O)OC(C)OC(=O)CN3CCOCC3)N2C1=O (stereo partly drawn) [compound 7, (1S,9S)-1-(2-morpholinoacetoxy)ethyl 9-[[(1S)-1-ethoxycarbonyl-3-phenylpropyl]amino]-10-oxooctahydro-1H-pyridazino[1,2-a][1,2]diazepine-1-carboxylate] | – | 0.33 h | 0.77 h | – | – | – | 132 h | 0.83 h | fast reaction kinetics | – | – | –
